According to patent US20210214713A9, “METHODS FOR EXPERIMENTAL EVOLUTION OF NATURAL AND SYNTHETIC MICROBES” (priority 2017, published 2021):
Like-named read-outs stand apart in the source and are kept apart here.

Legend:
[1] = system: haploid and diploid yeast populations (ySK116, ySK743, ySK116x743); format: cell-based, S. cerevisiae; conditions: 30° C., OD 0.25-0.3, over the 20 h following drug addition
Protocol: Single colonies of fluorescently labelled haploid MATα (ySK116), fluorescently labelled haploid MATα (ySK743), and fluorescently labelled diploid control (ySK116x743) cells were grown overnight in YPD. These overnights were used to seed three eVOLVER vials at OD 0.05 (containing YPAD+50 ug/mL carbenicillin+25 ug/mL chloramphenicol). Cells were maintained at 30° C. in a density window of OD 0.25-0.3 for several generations in order to measure a baseline growth rate. At 16 h post-inoculation, cells from each haploid population were transferred by the vial-to-vial transfer device into the same fresh vial containing YPAD in order to create a new pre-drug to diploid population.
Next, cyclohexamide (CHX) was added to the haploid MATα vial, ketoconazole (KETO) was added to the MATα vial, and both drugs were added to the diploid control. Using the media selection portion of the vial-to-vial transfer device, 1 mL aliquots of media at 20× drug concentration were used to achieve a step-function transition to the final 1× drug concentration in each vial (0.2 ug/mL CHX for MATα, 6 ug/mL KETO for MATα, 0.2 ug/mL CHX+6 ug/mL KETO for the diploid control).

[2] = system: diploid pool samples yBW003, yBW008, yBW009; test: Growth rate assay to evaluate antifungal resistance of diploid pools in eVOLVER; format: cell-based, S. cerevisiae; conditions: 6 ug/mL KETO only, seeded at OD 0.1, 30° C., 24 h without dilution
Protocol: As an alternative metric to evaluate performance of the diploids formed during the experiment, a growth rate assay was performed in media containing each drug in isolation or combination. Three diploid pool samples were assayed: yBW003 from to, yBWOO8 from t1, and yBW009 from t2. 100 uL of each frozen stock created from post-selection cultures was thawed, added to 2 mL YPAD and then grown in culture tubes in a shaking incubator for 16 h at 30° C. These cultures were used to seed duplicate eVOLVER vials containing media with one of four drug conditions (no drug, 0.2 ug/mL CHX only, 6 ug/mL KETO only, both 0.2 ug/mL CHX+6 ug/mL KETO) at an initial density of OD 0.1. Each vial received an estimated 3.2×10^7 cells from the non-clonal population that comprised each sample pool. Cultures were maintained in eVOLVER at 30° C. for 24 h without dilution, while tracking density continuously. Growth rate was calculated for each culture over the density range OD 0.2-0.8 (FIG. 43).

CC(=O)N1CCN(c2ccc(OCC3COC(Cn4ccnc4)(c4ccc(Cl)cc4Cl)O3)cc2)CC1 (stereo not drawn) [KETO, ketoconazole]
Growth rate relative to its original (pre-drug) value ([1]; 6 ug/mL KETO, haploid MATα vial (founder ySK743)): roughly 10% | Effect on growth rate of diploid pools [2]: not observed to significantly affect the growth rate

C[C@@H]1C[C@@H]([C@H](O)CC2CC(=O)NC(=O)C2)C(=O)[C@@H](C)C1 [CHX, cyclohexamide]
Growth rate relative to its original (pre-drug) value ([1]; 0.2 ug/mL CHX, haploid vial (founder ySK116)): roughly 10%
